The values below come from the RepoRT retention time repository.

Structures can show the parent of a compound that is named as a salt.

A short description of the data set: RP, Waters ACQUITY Premier BEH C18, 100 × 2.1 mm, 1.7 µm, 40 °C, 0.3 to 0.4 mL/min, estimated dead time 0.73 min; A: water + 0.1% formic acid; B: acetonitrile + 0.1% formic acid; gradient (min/%B) 0/0.5 0.1/0.5 10/80 10.1/99.5 12/0.5 12.1/0.5 14.5/0.5. To be noted: stereoisomer not certain.
As to `O=C(O)C[C@H](NC(=O)Cc1c[nH]c2ccccc12)C(=O)O` [L-N-(1H-INDOL-3-YLACETYL)ASPARTIC ACID], the LC retention time is 4.39 min. For `O=C1Cc2ccccc2N1` [1,3-DIHYDRO-(2H)-INDOL-2-ONE], the LC retention time was 5.06 min. Take `Cc1ccc(OS(=O)(=O)O)cc1` [P-CRESOL SULFATE]: the LC retention time was 4.57 min. Then `Nc1ncnc2c1ncn2C1CC(O)C(CO)O1` (stereo unspecified) [DEOXYADENOSINE], with 3.33 min; and `O=c1c(O)c(-c2ccc(O)cc2O)oc2cc(O)cc(O)c12` [MORIN], with 5.82 min. To `CC1(C(=O)O)CCC2(C)CCC3(C)C(=CC(=O)C4C5(C)CCC(OC6OC(C(=O)O)C(O)C(O)C6OC6OC(C(=O)O)C(O)C(O)C6O)C(C)(C)C5CCC43C)C2C1` (stereo unspecified) [GLYCYRRHIZIN] belongs 6.4 min. To `O=C(O)CC1C(=O)Nc2ccccc21` (stereo unspecified) [3-OXINDOLE-3-ACETATE] belongs 4.29 min. With `CC(C)CC(=O)OC(CC(=O)[O-])C[N+](C)(C)C` (stereo unspecified) [ISOVALERYLCARNITINE], the LC retention time was 4.39 min. Regarding `C=C(CC(=O)O)C(=O)O` [ITACONATE], the LC retention time is 3.67 min.

Consider `Cn1cnc(=N)c2[nH]cnc21` [3-METHYLADENINE], for which the LC retention time is 0.904 min.

Regarding `COc1ccc(-c2cc(=O)c3c(O)cc(O)cc3o2)cc1O` [DIOSMETIN], the LC retention time is 6.12 min. To `CC(C)CC(O)C(=O)O` (stereo unspecified) [HYDROXYISOCAPROIC ACID] belongs 4.88 min; to `O=c1[nH]c(=O)c2[nH]c(=O)[nH]c2[nH]1` [URATE], 1.52 min; to `CC(O)CCCC(=O)O` (stereo unspecified) [5-HYDROXYHEXANOIC ACID], 3.96 min. For `CC=CC=CC(=O)O` [SORBATE], the LC retention time was 5.71 min. Consider `OCC1OC(Oc2ccc(O)cc2)C(O)C(O)C1O` (stereo unspecified) [ARBUTIN], for which the LC retention time is 1.12 min. Then `CC(=O)NC(CO)C(=O)O` (stereo unspecified) [N-ACETYLSERINE], with 1.12 min; and `CC(C)CC1NC(=O)C2CCCN2C1=O` [L,L-CYCLO(LEUCYLPROLYL)], with 4.92 min; and `Cc1ncc(CO)c(C(=O)O)c1O` [4-PYRIDOXATE], with 3.4 min. Turning to `CC(C)CC(=O)C(=O)O` [KETOLEUCINE], the LC retention time is 4.02 min. To `COc1cc(C(=O)O)cc(OC)c1O` [SYRINGIC ACID] belongs 3.98 min; to `CC(C(=O)O)C(O)(CC(=O)O)C(=O)O` (stereo unspecified) [2-METHYLCITRATE], 3.44 min. In the case of `CN(CC(=O)O)C(=N)N` [CREATINE], the LC retention time is 0.905 min. For the compound `CC1C(=O)Nc2ccccc21` (stereo unspecified) [3-METHYL-2-OXINDOLE], the LC retention time was 5.75 min.

`O=C(O)CCC(=O)C(=O)O` [OXOGLUTARATE]: the LC retention time is 1.3 min. Regarding `O=C(O)C(O)c1ccc(O)cc1` (stereo unspecified) [P-HYDROXYMANDELIC ACID], the LC retention time was 2.48 min. Then `O=C(O)CNC(=O)CCc1ccccc1` [PHENYLPROPIONYLGLYCINE], with 4.84 min; and `COC(=O)CCCN` [METHYL 4-AMINOBUTYRATE], with 1.4 min.

For the compound `C=C1CC2(O)OC3(CC2C(C)C)C(C)CCC13` (stereo unspecified) [CURCUMOL], the LC retention time was 7.93 min.

With `COc1cc(C=CC(=O)O)cc(OC)c1O` [SINAPIC ACID], the LC retention time was 4.58 min.

As to `O=C(O)C1(O)CC(O)C(O)C(O)C1` (stereo unspecified) [QUINATE], the LC retention time is 0.92 min. Then `CC(=O)NCCCC(=O)O` [4-ACETAMIDOBUTANOATE], with 3.27 min; and `Cn1cnc2c1c(=O)[nH]c(=O)n2C` [THEOBROMINE], with 3.71 min; and `CC(O)CCCCCC(=O)O` (stereo unspecified) [7-HYDROXYOCTANOIC ACID], with 4.96 min. For the compound `O=C(O)CC(O)C(=O)O` (stereo unspecified) [MALATE], the LC retention time was 1.11 min. Regarding `CC(=O)Nc1ccc(OC2OC(C(=O)O)C(O)C(O)C2O)cc1` (stereo unspecified) [4-ACETAMIDOPHENYLGLUCURONIDE], the LC retention time is 1.32 min. As to `N[C@@H](Cc1ccc(O)c([N+](=O)[O-])c1)C(=O)O` [3-NITRO-L-TYROSINE], the LC retention time is 3.8 min. To `CSCCC(N)C(=O)O` (stereo unspecified) [ISTD_METHIONINE-METHYL-D3] belongs 1.46 min; to `COc1ccc(-c2oc3cc(OC)c(OC)c(O)c3c(=O)c2OC)cc1O` [CASTICIN], 6.98 min.

With `O=C(O)CCCCCCCCCCCC(=O)O` [1,11-UNDECANEDICARBOXYLATE], the LC retention time was 7.11 min. For `CC(C)(C(=O)O)C(=O)O` [DIMETHYLMALONIC ACID], the LC retention time is 3.97 min.

As to `O=C(O)CCCCCC(=O)O` [6-CARBOXYHEXANOATE], the LC retention time is 4.46 min. As for `O=C(O)CCCC(=O)C(=O)O` [OXOADIPATE], the LC retention time is 2.2 min. To `CC(C)c1cc2c(c(O)c1O)C1(C(=O)O)CCCC(C)(C)C1CC2` (stereo unspecified) [CARNOSIC ACID] belongs 8.06 min; to `Nc1nc2nc[nH]c2c(=O)[nH]1` [GUANINE], 1.29 min; to `COc1cc2c(c(O)c1C(=O)C=Cc1ccc(O)cc1)C(O)CC(C)(C)O2` (stereo unspecified) [ISOXANTHOHUMOL B], 6.64 min.

Regarding `O=C(O)CC(CC(=O)O)C(=O)O` [1,2,3-PROPANETRICARBOXYLIC ACID], the LC retention time was 2.39 min. To `O=C(OC1Cc2c(O)cc(O)cc2OC1c1ccc(O)c(O)c1)c1cc(O)c(O)c(O)c1` (stereo unspecified) [(?)-EPICATECHIN GALLATE] belongs 4.47 min; to `O=C(O)CC(=O)O` [MALONATE], 1.21 min; to `CC1OC(OC2C(O)C(OCCc3ccc(O)c(O)c3)OC(CO)C2OC(=O)C=Cc2ccc(O)c(O)c2)C(O)C(O)C1O` (stereo unspecified) [ACTEOSIDE], 4.38 min. Then `C=CC(C)(O)CCC1C(C)(O)CCC2C(C)(C)CCCC21C` (stereo unspecified) [SCLAREOL], with 8.18 min. To `CC(=O)NC(CC(=O)O)C(=O)O` (stereo unspecified) [N-ACETYLASPARTATE] belongs 1.41 min; to `CCCCCCCC(=O)OC(CC(=O)[O-])C[N+](C)(C)C` [L-OCTANOYLCARNITINE], 5.76 min; to `CC(CC(=O)O)CC(=O)O` [METHYGLUTARATE], 4.05 min.

Take `Nc1nc2nccnc2c(=O)[nH]1` [PTERIN]: the LC retention time is 2.44 min. To `C=C1C(=O)OC2C=C(C)CCC=C(C)CCC12` (stereo unspecified) [COSTUNOLIDE] belongs 7.65 min; to `O=CCc1c[nH]c2ccccc12` [INDOLEACETALDEHYDE], 6.28 min; to `O=C(O)CCCCC1CCSS1` [(R)-LIPOIC ACID], 6.93 min. To `Nc1ccn(C2OC(CO)C(O)C2O)c(=O)n1` (stereo unspecified) [CYTIDINE] belongs 1.41 min; to `Cc1cc2nc[nH]c2cc1C` [5,6 DIMETHYLBENZIMIDAZOLE], 4.48 min; to `OCC1OC(OC2OC(CO)C(O)C(O)C2O)C(O)C(O)C1O` (stereo unspecified) [TREHALOSE], 0.911 min. With `O=c1ccn(C2OC(CO)C(O)C2O)c(=O)[nH]1` (stereo unspecified) [URIDINE], the LC retention time is 2.45 min. To `CNCCc1c[nH]c2ccccc12` [N-METHYLTRYPTAMINE] belongs 4.45 min.

As to `O=C(O)c1ccc[nH]1` [PYRROLE-2-CARBOXYLATE], the LC retention time was 4.38 min. In the case of `O=c1ccn(C2CC(O)C(CO)O2)c(=O)[nH]1` (stereo unspecified) [DEOXYURIDINE], the LC retention time was 3.27 min.

`CCCCCC(O)C(O)CC=CCCCCCCCC(=O)O` (stereo unspecified) [12,13-DIHOME]: the LC retention time was 7.5 min.

On to `NCCc1c[nH]c2ccc(O)cc12` [SEROTONIN], for which the LC retention time was 3.44 min. To `O=C(O)CCCCCCCCCCCCCCC(=O)O` [HEXADECANEDIOIC ACID] belongs 7.67 min. Then `O=Cc1ccc(O)cc1` [4-HYDROXYBENZALDEHYDE], with 4.88 min. As to `O=C(O)CNC(=O)c1ccccc1O` [SALICYLURIC ACID], the LC retention time is 4.56 min. Then `Cc1cc(C(=O)O)ccc1O` [4-HYDROXY-3-METHYLBENZOIC ACID], with 4.47 min. To `CCCCCCC(N)C(=O)O` (racemic) [DL-2-AMINOOCTANOIC ACID] belongs 4.04 min; to `O=C(O)Cc1c[nH]c2ccccc12` [INDOLEACETIC ACID], 5.72 min. With `COc1cc(CCN)ccc1O` [3-METHOXYTYRAMINE], the LC retention time was 3.47 min. As for `O=C(O)c1cc(=O)c2cccc(O)c2[nH]1` [XANTHURENATE], the LC retention time is 3.98 min. To `O=c1c(-c2ccc(O)cc2)coc2cc(OC3OC(CO)C(O)C(O)C3O)ccc12` (stereo unspecified) [DAIDZIN] belongs 4.08 min. To `O=C(O)Cc1ccccc1O` [ORTHO-HYDROXYPHENYLACETIC ACID] belongs 4.97 min; to `Cc1cn(C2OC(CO)C(O)C2O)c(=O)[nH]c1=O` (stereo unspecified) [RIBOTHYMIDINE], 1.24 min. Regarding `Oc1ccccc1O` [PYROCATECHOL], the LC retention time is 3.85 min.

Regarding `CCCCCCCCCCCC(O)CC(=O)O` (stereo unspecified) [3-HYDROXYTETRADECANOIC ACID], the LC retention time was 8.11 min. Take `CC(C=CC1=C(C)CCCC1(C)C)=CC=CC(C)=CC(=O)O` [RETINOATE]: the LC retention time is 9.05 min. Take `C=C1CC23CC1(O)CCC2C12C=CC(O)C(C)(C(=O)O1)C2C3C(=O)O` (stereo unspecified) [GIBBERELLIN A3]: the LC retention time is 5.05 min. To `CCCCCCCCCCCCCC=CC(O)C(N)CO` (stereo unspecified) [SPHINGOSINE] belongs 7.39 min.

For the compound `O=C(O)Cc1cc(O)ccc1O` [HOMOGENTISATE], the LC retention time was 3.66 min.

For `OCC(Cc1cccc(O)c1)C(CO)Cc1cccc(O)c1` (stereo unspecified) [ENTERODIOL], the LC retention time was 5.95 min. Then `CC(=O)OCC[N+](C)(C)C` [ACETYLCHOLINE], with 0.961 min.
